Results on three compounds are retold here after patent US12605397B2, “Deoxy-cytidine or uridine derivatives for use in cancer therapies” (HEMISPHERIAN AS, priority 2019, dated 2026).

Data set [1] relates to glioblastoma multiforme. The note with it: glioblastoma multiforme patients; cited from earlier work.
Data set [2] deals with HAP1 cells. As to the kind of experiment: Survival assay (MTT), HAP1. Format: cell-based, human. Here is the method: (§1) Cells were incubated with the drugs for 72 hours.
Data set [3] deals with V79 cells. As to the kind of experiment: Survival assay (MTT), V79. Format: cell-based. The note with it: Cricetulus griseus, V79, Chinese Hamster Lung, 72 hours. Here is the method: (§2) Cells were passed between 70 and 90% confluence.
as §1

The subject of data set [4] is H1437 cells. As to the kind of experiment: Survival assay (MTT), H1437. Format: cell-based. The note with it: Homo sapiens, NCI-H1437. The procedure: as §2, §1
In data set [5] the test system is H1573 cells. Description: Survival assay (MTT), H1573. The note with it: Homo sapiens, NCI-H1573. The data set is classed as cell-based. Here is the method:
as §2, §1

For data set [6], the system named is Buffy A cells. As to the kind of experiment: Survival assay (MTT), Buffy A. Format: cell-based, human. The note with it: Homo sapiens, Normal, Bone Marrow, 72 hours. The procedure:
as §2, §1
(§3) The present inventors further investigated the extent to which these compounds kill normal human cells; low cytotoxicity against normal human cells is advantageous property for anti-cancer agents. The cytotoxicity of these compounds in various normal human cell lines was therefore investigated (Table 3). Cells were grown and the survival assay was performed as described above (Materials and Methods).

The subject of data set [7] is Buffy C cells. As to the kind of experiment: Survival assay (MTT), Buffy C. The data set is classed as cell-based, human. The note with it: Homo sapiens, Normal, Bone Marrow, 72 hours. The procedure:
as §2, §1, §3

Data set [8] has as its system normal (non-cancerous) human cell lines. Description: Survival assay, panel of normal (non-cancerous) human cell lines. The data set is classed as cell-based. The note with it: normal human cell lines of Table 3. Here is the method: as §1, §3
Data set [9] has as its system human cancer cell lines. As to the kind of experiment: Survival assay, range of human cancer cell lines. Format: cell-based. The note with it: cell lines of Table 1. The procedure: as §1
With the knowledge that 5-formyl-2′-deoxycytidine is cytotoxic to cervical carcinoma (HeLa) cells, the study was expanded in two directions: (i) a further compound was assessed: 5-carboxyl-2′-deoxycytidine; and (ii) their cytotoxic effects against a wide range of human cancer cell lines was assessed (Table 1).

The conditions of data set [10]: mouse, in vivo, ip. The procedure:
5-hydroxymethyl-2′-deoxycytidine and 5-formyl-2′-deoxycytidine (Berry and Associates), were formulated in dimethyl sulfoxide (DMSO)/Solutol (RTM) R HS15/phosphate buffered saline (PBS) (5/5/90, v/v/v) at the concentration of 30 and 200 and 400 mg/mL for IP administration at the dosing volume of […]. A dosing volume at 10 or 20 ml/kg was applied.
Male ICR mice weighing 23±3 g were provided by BioLasco Taiwan (under Charles River Laboratories Licensee). […] All animals were maintained in a hygienic environment with controlled temperature (20-24° C.), humidity (30%-70%) and 12 hours light/dark cycles. Free access to sterilized standard lab diet [MFG (Oriental Yeast Co., Ltd., Japan)] and autoclaved tap water were granted.
5-hydroxymethyl-2′-deoxycytidine and 5-formyl-2′-deoxycytidine were administered IP to groups of three male ICR mice weighing 23±3 g. Animals received an initial dose of 300 mg/kg. If the animals survived for 72 hours, the dose for the next cohort was increased. If one or more animals died, the dose for the next cohort was decreased. The testing stopped when all animals survived at the upper bound, or when three dose levels had been tested or when the upper or lower bound had been reached. […] Body weights were recorded pre-dose and at 72 hours. […] Gross necropsy was performed on all animals without tissue collection, and the next dose level was determined based on the study design table.
The maximum tolerated dose (MTD) of these compounds in mice was determined as described above (Materials and Methods). […] While the end-point of the study was survival after 72 hours, the presence of acute toxic symptoms (mortality, convulsions, tremors, muscle relaxation, sedation, etc.) and autonomic effects (diarrhea, salivation, lacrimation, vasodilation, piloerection, etc.) in the animals was monitored during the first 30 minutes, and again at 1, 24, 48 and 72 hours. Body weights were recorded pre-dose and at 72 hours.

The test system of data set [11] is Hypoxanthine-guanine phosphoribosyltransferase (HPRT) gene in V79 cells. As to the kind of experiment: HPRT mutagenicity assay. Format: cell-based, Chinese Hamster. The note with it: V79 cells, 1, 10, 100 μM, 24 hours. The procedure:
HPRT mutagenicity assay was performed in V79 cells. 50,000 V79 cells were treated with three different concentrations of either d5hmC or d5fC (1, 10, 100 μM) for 24 hours in a 6 well plate. DMSO was used as a negative control. After the treatment, the cells were subcultured as needed in T75 flasks for 9 days to allow expression of HPRT-mutants. 10,000 cells were replated into 10 replica Petri dishes (100×15 mm) with selective media (2.5 μg/ml of 6TG).
Survival (relative plating efficiency) was determined by plating 200 cells into four replica Petri dishes (60×15 mm) without selective media. Colonies were fixed, Giemsa-stained and counted 7 days later. The mutant frequency is expressed as a total number of mutants counted on all plates divided by the number of cells seeded corrected by reseeding plating efficiency. Experiment was performed three times, data represent mean of triplicate±SEM.

Setting [12] is: Homo sapiens, HAP1, HAP1, Tables 6 and 7, unit inferred.

Usually IC50 stands for the midpoint of a concentration-inhibition curve. Higher therefore signals lower potency.

Each structure is given as a SMILES string. Entries after “also recorded” stand apart in the source; their conditions may differ. Read-outs that look alike come from different tables or passages of the source.

For `Cn1nnc2c(C(N)=O)ncn2c1=O` [Temozolomide, 4-methyl-5-oxo-2,3,4,6,8-pentazabicyclo[4.3.0]nona-2,7,9-triene-9-carboxamide, reference compound], the “improvement of overall survival” value in [1] is reported as 2.5 months.
On to `Nc1nc(=O)n([C@H]2C[C@H](O)[C@@H](CO)O2)cc1C=O` [2d5fC, 5-formyl-2′-deoxycytidine], for which the IC50 in data set [2] (Homo sapiens, HAP1, 72 h, HAP1, Chronic Myelogenous Leukemia (CML), 72 hours, MTT) was over 25 µM; in [2] (setting [12]), at least 25 µM; in data set [3], over 25 µM; in data set [4] (H1437, Lung (metastatic non-small cell adenocarcinoma), 72 hours, MTT), 5.65 µM; in [4] (H1437, Tables 6 and 7, unit inferred) it was 5.65 µM; in data set [5] (H1573, Lung (metastatic adenocarcinoma), 72 hours, MTT) it was 7.72 µM. Besides, the IC50 in [5] (H1573, Tables 6 and 7, unit inferred) was 7.72 µM; in [6], over 25 µM; in data set [7], over 25 µM. In [8], the “cytotoxicity to normal cell lines” value is listed as “cytotoxic only to one normal human cell line”. Also, the “cytotoxicity in the cancer cell lines evaluated” value in data set [9] was “cytotoxic to a wide range of human cancer cells”. Also, the “tolerability of a single dose” value is reported as “can tolerate” in data set [10] (300 mg/kg), “can tolerate” in data set [10] (2000 mg/kg) and “unable to tolerate” in data set [10] (8000 mg/kg). Also, the “mutagenicity / genotoxicity (HPRT mutant frequency)” value in data set [11] is recorded as “not to be mutagenic; also recorded: not mutagens”.
Turning to `Nc1nc(=O)n([C@H]2C[C@H](O)[C@@H](CO)O2)cc1CO` [2d5hmC, 5-hydroxymethyl-2′-deoxycytidine], the IC50 is over 3.03 µM in data set [2] (HAP1, Chronic Myelogenous Leukemia (CML), 72 hours, MTT); 6.53 µM in [2] (setting [12]); over 25 µM in [3]; over 25 µM in data set [6]; over 25 µM in data set [7]. Besides, in [8], the “cytotoxicity to normal cell lines” value is “not cytotoxic to any of the normal cell lines evaluated”. Further, in [9], the “cytotoxicity in the cancer cell lines evaluated” value is listed as “only cytotoxic to two cell lines evaluated”. In addition, the “tolerability of a single dose” value in [10] (300 mg/kg) is “can tolerate”; in data set [10] (2000 mg/kg), “can tolerate”; in data set [10] (8000 mg/kg), “unable to tolerate”. Moreover, the “mutagenicity / genotoxicity (HPRT mutant frequency)” value in data set [11] is “not to be mutagenic; also recorded: not mutagens”.
